{
  "source": "patent US4916065A",
  "about": "(priority 1988, dated 1990)",
  "test_in_all_cases": "Antibacterial MIC, serial agar dilution",
  "type_in_all_cases": "cell-based",
  "key": {"[1]": {"test_system": "Staphylococcus aureus 209P", "conditions": "aerobic, nutrient agar"}, "[2]": {"test_system": "Staphylococcus aureus Smith", "conditions": "aerobic, nutrient agar"}, "[3]": {"test_system": "Staphylococcus aureus A20234", "conditions": "aerobic, nutrient agar, kanamycin-resistant"}, "[4]": {"test_system": "Staphylococcus aureus BX1633", "conditions": "aerobic, nutrient agar, ampicillin-resistant"}, "[5]": {"test_system": "Staphylococcus aureus A15097", "conditions": "aerobic, nutrient agar, methicillin-resistant"}, "[6]": {"test_system": "Staphylococcus epidermidis D153", "conditions": "aerobic, nutrient agar"}, "[7]": {"test_system": "Staphylococcus epidermidis A22152", "conditions": "aerobic, nutrient agar, kanamycin-resistant"}, "[8]": {"test_system": "Enterococcus faecalis A9612", "conditions": "aerobic, nutrient agar"}, "Micrococcus luteus 1001": {"test_system": "Micrococcus luteus 1001", "conditions": "aerobic, nutrient agar"}, "[9]": {"test_system": "Bacillus subtilis PCI-219", "conditions": "PCI219, aerobic, nutrient agar"}, "Escherichia coli NIHJ": {"test_system": "Escherichia coli NIHJ", "conditions": "aerobic, nutrient agar"}, "Escherichia coli Juhl": {"test_system": "Escherichia coli Juhl", "conditions": "aerobic, nutrient agar"}, "Escherichia coli A20665": {"test_system": "Escherichia coli A20665", "conditions": "aerobic, nutrient agar, kanamycin-resistant"}, "Escherichia coli A9624": {"test_system": "Escherichia coli A9624", "conditions": "aerobic, nutrient agar, kanamycin-resistant"}, "[10]": {"test_system": "Escherichia coli A20341-1", "conditions": "A203411, aerobic, nutrient agar, ampicillin-resistant"}, "[11]": {"test_system": "Enterobacter cloacae A9659", "conditions": "aerobic, nutrient agar"}, "[12]": {"test_system": "Klebsiella pneumoniae D11", "conditions": "aerobic, nutrient agar"}, "[13]": {"test_system": "Klebsiella pneumoniae A20680", "conditions": "aerobic, nutrient agar, kanamycin-resistant"}, "[14]": {"test_system": "Pseudomonas aeruginosa A9930", "conditions": "aerobic, nutrient agar"}, "Proteus vulgaris A9436": {"test_system": "Proteus vulgaris A9436", "conditions": "aerobic, nutrient agar"}, "Proteus mirabilis A9554": {"test_system": "Proteus mirabilis A9554", "conditions": "aerobic, nutrient agar"}, "[15]": {"test_system": "Morganella morganii A9553", "conditions": "aerobic, nutrient agar"}, "[16]": {"test_system": "Serratia marcescens A20222", "conditions": "aerobic, nutrient agar"}},
  "data": [
    {"smiles": "NC[C@H]1O[C@H](O[C@H]2[C@H](O)[C@@H](O[C@H]3O[C@H](CO)[C@@H](O)[C@H](N)[C@H]3O)[C@H](N)C[C@@H]2N)[C@H](O)[C@@H](O)[C@@H]1O", "note": "[Kanamycin A, reference compound]", "values": [
      {"measurement": "MIC", "setting": "[1]", "value": 0.2, "unit": "µg/mL"},
      {"measurement": "MIC", "setting": "[2]", "value": 0.8, "unit": "µg/mL"},
      {"measurement": "MIC", "setting": "[3]", "value": 100, "unit": "µg/mL"},
      {"measurement": "MIC", "setting": "[4]", "value": 0.8, "unit": "µg/mL"},
      {"measurement": "MIC", "setting": "[5]", "value": 0.8, "unit": "µg/mL"},
      {"measurement": "MIC", "setting": "[6]", "value": 0.4, "unit": "µg/mL"},
      {"measurement": "MIC", "setting": "[7]", "value": 12.5, "unit": "µg/mL"},
      {"measurement": "MIC", "setting": "[8]", "value": 25, "unit": "µg/mL"},
      {"measurement": "MIC", "setting": "Micrococcus luteus 1001", "value": 3.1, "unit": "µg/mL"},
      {"measurement": "MIC", "setting": "[9]", "value": 0.2, "unit": "µg/mL"},
      {"measurement": "MIC", "setting": "Escherichia coli NIHJ", "value": 1.6, "unit": "µg/mL"},
      {"measurement": "MIC", "setting": "Escherichia coli Juhl", "value": 6.3, "unit": "µg/mL"},
      {"measurement": "MIC", "setting": "Escherichia coli A20665", "value": "> 100", "unit": "µg/mL"},
      {"measurement": "MIC", "setting": "Escherichia coli A9624", "value": "> 100", "unit": "µg/mL"},
      {"measurement": "MIC", "setting": "[10]", "value": 6.3, "unit": "µg/mL"},
      {"measurement": "MIC", "setting": "[11]", "value": 3.1, "unit": "µg/mL"},
      {"measurement": "MIC", "setting": "[12]", "value": 0.4, "unit": "µg/mL"},
      {"measurement": "MIC", "setting": "[13]", "value": "> 100", "unit": "µg/mL"},
      {"measurement": "MIC", "setting": "[14]", "value": 25, "unit": "µg/mL"},
      {"measurement": "MIC", "setting": "Proteus vulgaris A9436", "value": 0.4, "unit": "µg/mL"},
      {"measurement": "MIC", "setting": "Proteus mirabilis A9554", "value": 3.1, "unit": "µg/mL"},
      {"measurement": "MIC", "setting": "[15]", "value": 3.1, "unit": "µg/mL"},
      {"measurement": "MIC", "setting": "[16]", "value": 6.3, "unit": "µg/mL"}
    ]}
  ]
}
